Data reported in US11723903B2, “Treatment of schizophrenia” (Vanda Pharmaceuticals Inc., priority 2015, dated 2023).

How the values were obtained:
[1] = post-marketing experience (post-approval use): adverse reactions in treated patients; assay type: in vivo; details: for adverse reactions associated with treatment, identified during post-approval use: reported voluntarily from a population of uncertain size, frequency and causality not established
Text: This invention comprises the discovery through post-marketing experience that treatment of patients with iloperidone has been associated with specific adverse reactions.
Without limiting this invention to a particular mechanism of action, the enumerated reactions may be hypersensitivity reactions. An aspect of this invention therefore comprises amending the contraindications section and/or the adverse events section of the iloperidone package insert, i.e., prescribing information, to read more or less as follows: • 4 CONTRAINDICATIONS • FANAPT is contraindicated in individuals with a known hypersensitivity reaction to the product. […] Because these reactions were reported voluntarily from a population of uncertain size, it is not possible to reliably estimate their frequency or establish a causal relationship to drug exposure.

[2] = prescribing information approved as of the priority date; cited from earlier work

SMILES: COc1cc(C(C)=O)ccc1OCCCN1CCC(c2noc3cc(F)ccc23)CC1 [iloperidone]
- relative frequency among the enumerated reactions [1]: rash was the most common followed by swollen tongue and swollen lip
- adverse reactions associated with treatment, identified during post-approval use [1]: anaphylaxis, angioedema, throat tightness, oropharyngeal swelling, swelling of the face, lip, mouth, and tongue; urticaria, rash, and pruritus
- adverse reactions associated with treatment, identified during post-approval use ([1]; listed as FANAPT): retrograde ejaculation and hypersensitivity reactions (including anaphylaxis, angioedema, throat tightness, oropharyngeal swelling, swelling of the face, lip, mouth, and/or tongue; urticaria, rash, and pruritus)
- known hypersensitivity reactions to the product (Contraindications section) [2]: pruritus and urticaria
